Where no end group is shown, it is not given here. [ ]: non-standard residue; d: D form. Hyp = O=C(O)[C@@H]1C[C@@H](O)CN1
How the values were obtained:
[1] = system: type 17 collagen gene; assay: Gene expression test: mRNA level of type 17 collagen gene in epidermal cells (RT-PCR, corrected with GAPDH); format: cell-based, human; design: key to Assessment (promoting action on type 17 collagen gene expression): samples with “++” were determined to have a significance in the promoting action on expression of the gene; In samples with “+”, the gene expression increase rate (%) exceeded 100; Samples with “−” were determined to have no significance in the promoting action on expression of the gene; conditions: NHEK cells; for Assessment (promoting action on type 17 collagen gene expression) / Gene expression increase rate (type 17 collagen gene): 1 mM final concentration, 72 hours; for Gene expression increase rate (type 17 collagen gene): control = 100
Description: (§1) First, normal human epidermal keratinocytes NHEK (NB) (manufactured by KURABO INDUSTRIES LTD.) were obtained as epidermal cells. The cells were seeded in a necessary number of commercially available dishes of ϕ60 mm at 1.25×10^4 cells per dish (5 mL of a cell dispersion liquid having a concentration of 0.25×10^4 cells/mL), and cultured in a serum-free medium (trade name: “HuMedia KG-2”, manufactured by KURABO INDUSTRIES LTD.) for 2 days. Then, the cells were confirmed to be subconfluent in the dishes, and the medium in the dishes was then replaced by a basal medium (trade name: “HuMedia KB-2”, manufactured by KURABO INDUSTRIES LTD.). In this way, epidermal cells for evaluating the mRNA level of the type 17 collagen gene and the mRNA level of the glutathione synthetase gene were prepared.
(§2) To the basal medium in the dishes, the peptide or the collagen peptide mixture was added to the concentrations shown in Tables 1 to 4, and the cells were cultured at 37° C. in an atmosphere at a carbon dioxide concentration of 5 vol % for 72 hours to prepare samples to be subjected to a gene expression test. In addition, a control sample obtained by adding only ion-exchanged water to the basal medium in the dish (hereinafter, also referred to as “Blank”) was prepared. This control sample was also cultured at 37° C. in an atmosphere at a carbon dioxide concentration of 5 vol % for 72 hours.
Next, by using a RNA extraction kit (trade name: “TRIzol (registered trademark) Reagent, manufactured by Life Technologies Japan Ltd.) in accordance with the protocol accompanying the kit, total RNA was extracted from the epidermal cells in the dish to obtain an extract containing total RNA for each sample. Subsequently, by using a cDNA preparation kit (trade name (product number): “High Capacity RNA-to-cDNA Kit (4387406)”, manufactured by Life Technologies Japan Ltd.) in accordance with the protocol accompanying the kit, reverse transcription was performed on RNA in the extract to obtain cDNA from the RNA in the extract. Further, real-time (RT)-PCR was performed on the cDNA by a DNA amplifying apparatus (trade name: “Step One Plus (TM) Real-Time PCR System”, manufactured by Applied Biosystems Inc.).
In the RT-PCR, the mRNA levels of type 17 collagen (manufactured by Life Technologies Japan Ltd., primer: Hs009900361_ml) as a target gene and glutathione synthetase (GSS, manufactured by Life Technologies Japan Ltd., primer: Hs01547656_ml) were measured. As an internal standard (correction gene), GAPDH was selected. For calculation of the mRNA level, a calibrated curve method was used. As the primer and the probe for the RT-PCR, those accompanying a reagent kit (trade name: “TaqMan (registered trademark) Gene Expression Assays, manufactured by Applied Biosystems Inc.) were used.
First, in the samples and the control sample, the mRNA levels (gene expression levels) of the two target genes (type 17 collagen and glutathione synthetase) were each calculated. Next, the mRNA levels of the two target genes were corrected with the mRNA level of GAPDH as a correction gene to obtain correction values in the samples and the control sample. Specifically, values obtained by dividing the mRNA levels of the two target genes by the mRNA level of GAPDH (relative values) were each determined.
Then, the ratio of the correction value obtained in each sample to the correction value in the control sample, which was defined as 100, was determined (gene expression increase rate (%)).
Further, the gene expression increase rate (%) was subjected to statistical processing to evaluate significance of the promoting action on gene expression of the type 17 collagen gene and the glutathione synthetase gene in each sample. […]

[2] = system: glutathione synthetase gene; assay: Gene expression test: mRNA level of glutathione synthetase gene in epidermal cells (RT-PCR, corrected with GAPDH); format: cell-based, human; conditions: NHEK cells, 1 mM final concentration, 72 hours; for Gene expression increase rate (glutathione synthetase gene): control = 100
Description: as §1, §2
Next, by using a RNA extraction kit (trade name: “TRIzol (registered trademark) Reagent, manufactured by Life Technologies Japan Ltd.) in accordance with the protocol accompanying the kit, total RNA was extracted from the epidermal cells in the dish to obtain an extract containing total RNA for each sample. Subsequently, by using a cDNA preparation kit (trade name (product number): “High Capacity RNA-to-cDNA Kit (4387406)”, manufactured by Life Technologies Japan Ltd.) in accordance with the protocol accompanying the kit, reverse transcription was performed on RNA in the extract to obtain cDNA from the RNA in the extract. […]
In the RT-PCR, the mRNA levels of type 17 collagen (manufactured by Life Technologies Japan Ltd., primer: Hs009900361_ml) as a target gene and glutathione synthetase (GSS, manufactured by Life Technologies Japan Ltd., primer: Hs01547656_ml) were measured. […]
First, in the samples and the control sample, the mRNA levels (gene expression levels) of the two target genes (type 17 collagen and glutathione synthetase) were each calculated. […] Specifically, values obtained by dividing the mRNA levels of the two target genes by the mRNA level of GAPDH (relative values) were each determined.
Then, the ratio of the correction value obtained in each sample to the correction value in the control sample, which was defined as 100, was determined (gene expression increase rate (%)). […]

Row | Substance | Assessment (promoting action on type 17 collagen gene expression) [1] | Gene expression increase rate (type 17 collagen gene) [1] | promoting action on type 17 collagen gene expression (in words) ([1]; discussion of Table 1) | Assessment (promoting action on glutathione synthetase gene expression) [2] | Gene expression increase rate (glutathione synthetase gene) [2]
1 | Glu-Hyp [EO, reference compound] | − | 100 ± 6.46% | did not exhibit an evident promoting action |  | 
2 | Glu-[Hyp]-Gly [EOG] | + (In samples with “+”, the gene expression increase rate (%) exceeded 100) | 144 ± 17.01% |  | + (In samples with “+”, the gene expression increase rate (%) exceeded 100) | 131 ± 10%
3 | Gly-Pro [GP] | ++ | 201 ± 8.42% |  | + (In samples with “+”, the gene expression increase rate (%) exceeded 100) | 106 ± 2%
